Experimental data reported in US10718769B2, “Compounds comprising one or more hydrophobic domains and a hydrophilic domain comprising peg moieties, useful for binding cells” (Roche Diagnostics Operations, Inc., priority 2013, dated 2020).
“And” between values parts separate entries of the source, which are not always exact repeats. Equal entries are not always repeated. Where two headings read alike, the source gives them in different places.

Assays:
[1] = system: Jurkat cells; conditions: centrifugation 20 min, 500×g; within 5.5 h incubation with molecule
Description: Respective columns from left: 1: 10 min incubation with molecule. 2: 1 h incubation with molecule. 3: 3,5 h incubation with molecule. 4: 5.5 h min incubation with molecule. Following molecules were tested: 1255: 3′-(Myristic acid)2-PEG2000-dT-Biotin-TEG-5′ INVERS. 1234: 5′-(Cholesteryl-TEG)2-Spacer C18-dT-Biotin-TEG-3′; 1248: 3′-(Cholesteryl-TEG)2-PEG2000-Fluos-Biotin-TEG-5′ INVERS; 1254: 3′-(Cholesteryl-TEG)2-SpacerC18-Fluos-Biotin-TEG-5′ INVERS. […] Centrifugation characteristics: 20 min, 500×g.
(§1) Following molecules were tested: • 1255: 3′-(Myristic acid)2-PEG2000-dT-Biotin-TEG-5′ INVERS • 1234: 5′-(Cholesteryl-TEG)2-Spacer C18-dT-Biotin-TEG-3′ • 1248: 3′-(Cholesteryl-TEG)2-PEG2000-Fluos-Biotin-TEG-5′ INVERS • 1254: 3′-(Cholesteryl-TEG)2-SpacerC18-Fluos-Biotin-TEG-5′ INVERS
(§2) Centrifugation characteristics: 20 min, 500×g.

[2] = system: WBC; test: WBC recovery rate after centrifugation (stabilization of cells, Example 5); type: cell-based; conditions: centrifugation 20 min
Description: (§3) Centrifugation characteristics: 10 min, 300×g.
as §3
The respective left, middle and right columns per assay represent different Experimenters 1, 2 and 3. […] Centrifugation characteristics: 10 min, 300×g. Molecule: Cholesteryl-TEG-Cholesteryl-TEG-(SpacerC18)7-Fluos-Biotin-TEG.
(§4) Following molecules were tested: 1234: 5′-(Cholesteryl-TEG)2-Spacer C18-dT-Biotin-TEG-3′; 1248: 3′-(Cholesteryl-TEG)2-PEG2000-Fluos-Biotin-TEG-5′ INVERS; 1254: 3′-(Cholesteryl-TEG)2-SpacerC18-Fluos-Biotin-TEG-5′ INVERS; 1255: 3′-(Myristic acid)2-PEG2000-dT-Biotin-TEG-5′ INVERS. […] Centrifugation characteristics: 20 min, 300×g. Respective left column: 10 min incubation with molecule. Respective middle column: 1 h min incubation with molecule. Respective right column: 2 h incubation with molecule.
Following molecules were tested: 1255: 3′-(Myristic acid)2-PEG2000-dT-Biotin-TEG-5′ INVERS; 1234: 5′-(Cholesteryl-TEG)2-Spacer C18-dT-Biotin-TEG-3′; 1248: 3′-(Cholesteryl-TEG)2-PEG2000-Fluos-Biotin-TEG-5′ INVERS; 1254: 3′-(Cholesteryl-TEG)2-SpacerC18-Fluos-Biotin-TEG-5′ INVERS. […] Centrifugation characteristics: 20 min, 500×g. Respective left column: 10 min incubation with molecule. Respective middle column: 1 h min incubation with molecule. Respective right column: 3 h incubation with molecule.
as §4, with “tested: 1255: 3′-(Myristic acid)2-PEG2000-dT-Biotin-TEG-5′ INVERS;” for “tested:”, “3′-(Cholesteryl-TEG)2-SpacerC18-Fluos-Biotin-TEG-5′” for “3′-(Cholesteryl-TEG)2-SpacerC18-Fluos-Biotin-TEG-5′ INVERS; 1255: 3′-(Myristic acid)2-PEG2000-dT-Biotin-TEG-5′”, “1000×g.” for “300×g.”
The effect of compounds of the invention on stabilizing cells and on immobilization was determined.
Centrifugation characteristics: 10 min, 300×g. A: Choleseryl-TEG-Cholesteryl-TEG-(SpacerC18)7-Fluos-Biotin-TEG.
Centrifugation characteristics: 10 min, 300×g. Molecule: Cholesteryl-TEG-Cholesteryl-TEG-(SpacerC18)7-Fluos-Biotin-TEG.
Centrifugation characteristics: 20 min, 300×g.
as §1

[3] = system: MDA-MB468 cells; conditions: centrifugation 20 min, 500×g; within 5 h incubation with molecule
Description: Respective columns from left: 1: 10 min incubation with molecule. 2: 1 h incubation with molecule. 3: 3 h incubation with molecule. 4: 5 h min incubation with molecule. Following compounds for use according to the invention were tested: 1234: 5′-(Cholesteryl-TEG)2-Spacer C18-dT-Biotin-TEG-3′; 1255: 3′-(Myristic acid)2-PEG2000-dT-Biotin-TEG-5′ INVERS. […] Centrifugation characteristics: 20 min, 500×g.
Following compounds of the invention were tested: • 1234: 5′-(Cholesteryl-TEG)2-Spacer C18-dT-Biotin-TEG-3′ • 1255: 3′-(Myristic acid)2-PEG2000-dT-Biotin-TEG-5′ INVERS
as §2

[4] = system: white blood cells (WBCs); conditions: for WBC per well: 300 000 WBCs/well
Description: Aim of this experiment: Testing of the white blood cell immobilization on a streptavidin-coated surface using different molecules of the invention. In particular, the performance of a single cholesterol-molecule and different dual-linker molecules (i.e. containing two hydrophobic moieties) was tested. In detail, immobilization of white blood cells (WBCs) on a Streptavidin-coated surface using different linker molecules was tested on a 12-well plate: 300 000 WBCs/well. This was followed by the measurement of the cell recovery rate after immobilization and washing of the cells using the Cellavista instrument (10× Nuclei Operator s9s5).

[5] = system: MDA-MB468; test: Labelling of cells using compounds of the invention; type: cell-based
Description: (§5) 2. Labelling of Cells Using Compounds of the Invention

[6] = system: U937; test: as above; type: cell-based
Description: as §5

[7] = system: Epithelial cells; test: as above; type: cell-based
Description: as §5

[8] = system: COS 7; test: as above; type: cell-based
Description: as §5

[9] = system: Jurkats; test: as above; type: cell-based
Description: as §5

[10] = system: NIH 3T3; test: as above; type: cell-based; conditions: * one cell not stained
Description: as §5

[11] = system: Hela; test: as above; type: cell-based; conditions: * one cell stained weakly
Description: as §5

[12] = system: CHO; test: as above; type: cell-based
Description: as §5

[13] = system: WBC; test: Immobilization of cells, recovery rate of cells (Example 3 A and D); type: cell-based; conditions: WBCs
Description: In the following experiment, the recovery rate of cells was determined.

[14] = system: WBCs; test: Labelling of cells using compounds of the invention; type: cell-based
Description: as §5

[15] = Sample 2, compound concentration: 100 pmol/10e6 WBCs
[16] = Sample 2, compound concentration: 1 nmol/10e6 WBCs

**Q.** With “3′-(Cholesteryl-TEG)2-PEG2000-Fluos-Biotin-TEG-5′ INVERS [compound 1248]” as the compound, how does the “Stability of Jurkat culture cells during centrifugation” value [1] read?
**A.** stable during centrifugation processes

**Q.** How did the “Stability of Jurkat culture cells during centrifugation” value [1] turn out when “3′-(Myristic acid)2-PEG2000-dT-Biotin-TEG-5′ INVERS [compound 1255]” was run?
**A.** stable during centrifugation processes

**Q.** What about the “Performance in WBC recovery rate after centrifugation (ranking)” value ([2]; 300×g) of the same compound?
**A.** followed by compound 1255

**Q.** What about the “Performance in WBC recovery rate after centrifugation (ranking)” value ([2]; 500×g) of the same compound?
**A.** followed by molecule 1255

**Q.** And the “Stability of MDA-MB468 culture cells during centrifugation” value [3]?
**A.** stable during centrifugation processes

**Q.** “5′-(Cholesteryl-TEG)2-Spacer C18-Fluos-Biotin_TEG-3′ INVERS [29.891254]” was tested. Which “Stability of Jurkat culture cells during centrifugation” value [1] did it give?
**A.** stable during centrifugation processes

**Q.** And the “WBC per well” value ([4]; Sample 1, first block of the table (r4-r12), footnote: 1 nmol/10e6 WBCs)?
**A.** 157660 and 190148 and 170850

**Q.** What about the “WBC per well” value ([4]; Sample 1, second block of the table (r13-r21), compound concentration: 1 nmol/10e6 WBCs) of the same compound?
**A.** 244649 and 234262 and 260760

**Q.** What about the “Mean (WBC per well)” value [4, 15] of the same compound?
**A.** 197067.00

**Q.** What about the “WBC per well” value [4, 15] of the same compound?
**A.** 200184 and 205917 and 185100

**Q.** What about the “Mean (WBC per well)” value [4, 16] of the same compound?
**A.** 245376.00

**Q.** What about the “WBC per well” value [4, 16] of the same compound?
**A.** 244396 and 244304 and 247428

**Q.** Which “Stability of Jurkat culture cells during centrifugation” value [1] does the source give for “5′-(Cholesteryl-TEG)2-Spacer C18-dT-Biotin-TEG-3′ [compound 1234]” here?
**A.** stable during centrifugation processes

**Q.** And the “Stability of MDA-MB468 culture cells during centrifugation” value [3]?
**A.** stable during centrifugation processes

**Q.** What does the source list for “5′-CholesterylTEG-CholesterylTEG-PEG2000-Fluos-3′ [BMO 29.891133]”?
**A.** Labelling (staining) of MDA-MB468 [5]: √; Labelling (staining) of U937 [6]: √; Labelling (staining) of Epithelial cells [7]: √; Labelling (staining) of COS 7 [8]: √; Labelling (staining) of Jurkats [9]: √; Labelling (staining) of NIH 3T3 [10]: √; Labelling (staining) of Hela [11]: √; Labelling (staining) of CHO [12]: √

**Q.** With “5′-CholesterylTEG-CholesterylTEG-PEG2000-Fluos-BiotinTEG-3′ [BMO 29.891180]” as the compound, how does the “staining (Remarks)” value [13] read?
**A.** strong

**Q.** What does the source list for CCCCCCCCCCCCCCCCCCN1C(=CC=CC2=[N+](CCCCCCCCCCCCCCCCCC)c3ccccc3C2(C)C)C(C)(C)c2ccccc21.[O-][Cl+3]([O-])([O-])[O-] [1,1′-Dioctadecyl-3,3,3′,3′-tetramethylindocarbocyanin perchlorate]?
**A.** Labelling (staining) of MDA-MB468 [5]: √; Labelling (staining) of U937 [6]: √; Labelling (staining) of Epithelial cells [7]: √; Labelling (staining) of COS 7 [8]: √; Labelling (staining) of Jurkats [9]: √; Labelling (staining) of NIH 3T3 [10]: √*; Labelling (staining) of Hela [11]: √; Labelling (staining) of WBCs [14]: √ not all; Labelling (staining) of CHO [12]: √

**Q.** With CCCCC/C=C\C/C=C\CCCCCCCCN1C(=CC=CC2=[N+](CCCCCCCC/C=C\C/C=C\CCCCC)c3ccccc3C2(C)C)C(C)(C)c2ccccc21.[O-][Cl+3]([O-])([O-])[O-] [Linol, 1,1′-dilinoleyl-3,3,3′,3′-tetramethylindocarbocyanine perchlorate] as the compound, how does the “Labelling (staining) of MDA-MB468” value [5] read?
**A.** √

**Q.** What about the “Labelling (staining) of U937” value [6] of the same compound?
**A.** √

**Q.** What about the “Labelling (staining) of Epithelial cells” value [7] of the same compound?
**A.** √

**Q.** And the “Labelling (staining) of COS 7” value [8]?
**A.** √

**Q.** What about the “Labelling (staining) of Jurkats” value [9] of the same compound?
**A.** √

**Q.** And the “Labelling (staining) of NIH 3T3” value [10]?
**A.** √

**Q.** And the “Labelling (staining) of Hela” value [11]?
**A.** √

**Q.** And the “Labelling (staining) of CHO” value [12]?
**A.** √

**Q.** For CCCCCCCCCCCCCCCCCCCCCC[N+]1=C(/C=C/C=C2/N(CCCCCCCCCCCCCC)c3ccccc3C2(C)C)C(C)(C)c2ccccc21.[I-] [PKH26], which “Labelling (staining) of MDA-MB468” value [5] is on record?
**A.** √

**Q.** What about the “Labelling (staining) of U937” value [6] of the same compound?
**A.** √

**Q.** And the “Labelling (staining) of Epithelial cells” value [7]?
**A.** √ not all

**Q.** And the “Labelling (staining) of COS 7” value [8]?
**A.** √

**Q.** And the “Labelling (staining) of Jurkats” value [9]?
**A.** √

**Q.** What about the “Labelling (staining) of NIH 3T3” value [10] of the same compound?
**A.** √

**Q.** What about the “Labelling (staining) of Hela” value [11] of the same compound?
**A.** √*

**Q.** And the “Labelling (staining) of CHO” value [12]?
**A.** √
